In patent US10669283B2, “Compound and pharmacologically acceptable salt thereof” (MEIJI SEIKA PHARMA CO., LTD., priority 2016, dated 2020):

test system: PDE4; experiment: PDE4 inhibition, scintillation proximity assay (SPA); format: biochemical; conditions: scintillation proximity assay (SPA); evaluated as classes A, B, C; read-out: PDE4 Inhibitory Activity (concentration for the inhibition rate of 50%);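 further: A below 100 nM B 100 to below 1000 nM C 1000 nM or more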
Method in brief: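 Compound pre-diluted 1:10 in 50 mM Tris-HCl pH 7.4, 8.3 mM MgCl2, 1.7 mM EGTA, 3 mg/mL BSA, then incubated with PDE4 and [2,8-3H]-cAMP for 120 min at room temperature. Product captured on ZnSO4-containing YSi-SPA beads for 15 min; radioactivity counted against no-enzyme blank and DMSO control.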

**Q.** Which IC50 does the source give for `FC(F)(F)c1cc(-c2nccs2)c2oc(N3CC4CC(C3)N4)nc2c1` [Example 52, 2-(3,6-Diazabicyclo[3.1.1]heptan-3-yl)-7-(thiazol-2-yl)-5-(trifluoromethyl)benzo[d]oxazole] here?
**A.** < 100 nM

**Q.** With `CC(O)c1cc(-c2nccs2)c2oc(N3CC4CCC(C3)N4)nc2c1` (stereo not drawn) [Example 106, 1-(2-(3,8-Diazabicyclo[3.2.1]octan-3-yl)-7-(thiazol-2-yl)benzo[d]oxazol-5-yl)ethan-1-ol] as the molecule, how does the IC50 read?
**A.** < 100 nM

**Q.** Which IC50 does the source give for `CC(=O)Nc1cc(-c2nccs2)c2oc(N3CC4CCC(C3)N4)nc2c1` [Example 50, N-(2-(3,8-diazabicyclo[3.2.1]octan-3-yl)-7-(thiazol-2-yl)benzo[d]oxazol-5-yl)acetamide] here?
**A.** < 100 nM

**Q.** `CC(=O)c1ccc(-c2nccs2)c2oc(N3CC4CCC(C3)N4)nc12` [Example 245, 1-(2-(3,8-Diazabicyclo[3.2.1]octan-3-yl)-7-(thiazol-2-yl)benzo[d]oxazol-4-yl)ethan-1-one] was tested. Which IC50 did it give?
**A.** < 100 nM

**Q.** Which IC50 does the source give for `CC(C)(O)COc1ccc(-c2nccs2)c2oc(N3CC4CC(C3)N4)nc12` [Example 279, 1-((2-(3,6-Diazabicyclo[3.1.1]heptan-3-yl)-7-(thiazol-2-yl)benzo[d]oxazol-4-yl)oxy)-2-methylpropan-2-ol] here?
**A.** < 100 nM

**Q.** Which IC50 does the source give for `CC(=O)Nc1cc(-c2nccs2)c2oc(N3CC4CC(C3)N4)nc2c1` [Example 49, N-(2-(3,6-diazabicyclo[3.1.1]heptan-3-yl)-7-(thiazol-2-yl)benzo[d]oxazol-5-yl)acetamide] here?
**A.** 100 to 1000 nM

**Q.** `CCOC(=O)c1ccc(-c2nccs2)c2oc(N3CC4CCC(C3)N4)nc12` [Example 112, Ethyl 2-(3,8-diazabicyclo[3.2.1]octan-3-yl)-7-(thiazol-2-yl) benzo[d]oxazole-4-carboxylate] was tested. Which IC50 did it give?
**A.** < 100 nM

**Q.** Which IC50 does the source give for `OC(c1ccc(-c2nccs2)c2oc(N3CC4CC(C3)N4)nc12)C(F)(F)F` (stereo not drawn) [Example 121, 1-(2-(3,6-Diazabicyclo[3.1.1]heptan-3-yl)-7-(thiazol-2-yl)benzo[d]oxazol-4-yl)-2,2,2-trifluoroethan-1-ol] here?
**A.** < 100 nM

**Q.** For `CC(=O)c1cc(-c2nccs2)c2oc(N3CC4CC(C3)N4)nc2c1OC(F)(F)F` [Example 212, 1-(2-(3,6-Diazabicyclo[3.1.1]heptan-3-yl)-7-(thiazol-2-yl)-4-(trifluoromethoxy)benzo[d]oxazol-5-yl)ethan-1-one], which IC50 is on record?
**A.** < 100 nM

**Q.** Which IC50 does the source give for `CCOC(c1cc(-c2nccs2)c2oc(N3CC4CC(C3)N4)nc2c1)C(F)(F)F` (stereo not drawn) [Example 150, 2-(3,6-Diazabicyclo[3.1.1]heptan-3-yl)-5-(1-ethoxy-2,2,2-trifluoroethyl)-7-(thiazol-2-yl)benzo[d]oxazole] here?
**A.** < 100 nM

**Q.** With `Oc1ccc(-c2nccs2)c2oc(N3CC4CCCC(C3)N4)nc12` [Example 80, 2-(3,9-Diazabicyclo[3.3.1]nonan-3-yl)-7-(thiazol-2-yl) benzo[d]oxazol-4-ol] as the molecule, how does the IC50 read?
**A.** < 100 nM

**Q.** `FC(F)(F)COc1cc(-c2nccs2)c2oc(N3CC4CC(C3)N4)nc2c1` [Example 67, 2-(3,6-Diazabicyclo[3.1.1]heptan-3-yl)-7-(thiazol-2-yl)-5-(2,2,2-trifluoroethoxy)benzo[d]oxazole] was tested. Which IC50 did it give?
**A.** < 100 nM

**Q.** For `OC(c1cc(-n2cccn2)c2oc(N3CC4CCC(C3)N4)nc2c1)C(F)(F)F` (stereo not drawn) [Example 140, 1-(2-(3,8-Diazabicyclo[3.2.1]octan-3-yl)-7-(1H-pyrazol-1-yl)benzo[d]oxazol-5-yl)-2,2,2-trifluoroethan-1-ol], which IC50 is on record?
**A.** < 100 nM

**Q.** `CC(O)c1cc(-c2nccs2)c2oc(N3CC4CC(C3)N4)nc2c1OC(F)(F)F` (stereo not drawn) [Example 203, 1-(2-(3,6-Diazabicyclo[3.1.1]heptan-3-yl)-7-(thiazol-2-yl)-4-(trifluoromethoxy)benzo[d]oxazol-5-yl)ethan-1-ol] was tested. Which IC50 did it give?
**A.** < 100 nM

**Q.** With `OCC(F)(F)OC(c1ccc(-c2nccs2)c2oc(N3CC4CC(C3)N4)nc12)C(F)(F)F` (stereo not drawn) [Example 258, 2-(1-(2-(3,6-Diazabicyclo[3.1.1]heptan-3-yl)-7-(thiazol-2-yl)benzo[d]oxazol-4-yl)-2,2,2-trifluoroethoxy)-2,2-difluoroethan-1-ol] as the molecule, how does the IC50 read?
**A.** < 100 nM
